Literature values, collected in US6617125B2, “Compositions for enhanced catalyzed reporter deposition” (PerkinElmer Life Sciences, Inc., priority 2001, dated 2003).

Columns and labels:
HRP [1] = target: T1, HRP (Armoracia rusticana, UniProt P00433)
T1 sequence (P00433 31-338 limits assumed): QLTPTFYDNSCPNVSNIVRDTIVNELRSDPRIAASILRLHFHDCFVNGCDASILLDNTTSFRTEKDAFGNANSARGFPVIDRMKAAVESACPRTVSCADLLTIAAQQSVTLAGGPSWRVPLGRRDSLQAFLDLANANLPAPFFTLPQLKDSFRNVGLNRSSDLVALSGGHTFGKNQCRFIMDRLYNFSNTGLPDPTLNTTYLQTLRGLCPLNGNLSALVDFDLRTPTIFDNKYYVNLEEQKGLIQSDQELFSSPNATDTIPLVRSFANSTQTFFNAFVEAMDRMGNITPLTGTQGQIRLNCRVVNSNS

HRP [2] = conditions: substrate guaiacol; Whitaker and Tappel 1962

Row | effect on the oxidation of 4-chloro-1-naphthol (HRP [1]; substrate 4-chloro-1-naphthol, de Jong et al. 1985) | enhancement of the oxidation of p-phenylenediamine-pyrocatechol (HRP [1]; substrate combination p-phenylenediamine-pyrocatechol, de Jong et al. 1985) | enhancement of the oxidation of diaminobenzidine (HRP [1]; substrate diaminobenzidine, de Jong et al. 1985) | effect on substrates which form covalently depositable products (HRP [1]; substrates which form covalently depositable products) | SMILES | enhancement of the oxidation of guaiacol (HRP [2])
1 | no effect | two | approximately four | no effect | c1c[nH]cn1 [imidazole] | –
2 | – | – | – | – | [Cl-].[Na+] [NaCl] | enhance
3 | – | – | – | – | O=S(=O)([O-])[O-].[Na+].[Na+] [Na2SO4] | enhance
4 | – | – | – | – | [Cl-].[K+] [KCl] | enhance
